Experimental data: patent US9255103B2, “Substituted pyrazolo[1,5-a]pyrazines as mGluR5 receptor modulators” (Vanderbilt University, priority 2010, dated 2016)
Read-outs that look alike come from different tables or passages of the source.

Tests used:
human mGluR5a receptor = human mGluR5a receptor (Homo sapiens, UniProt P41594); assay: Cell-based functional Ca2+ mobilization assay (FDSS), potentiation of glutamate EC20 response in H10H cell line; settings: for Emax: percent of maximal glutamate response, human mGluR5 HEK cells; for pEC50 / EC50: HEK cells transfected with human mGluR5 (H10H), presence of glutamate EC20
Chain of human mGluR5a receptor (P41594 21-1180 isoform P41594-2 limits assumed): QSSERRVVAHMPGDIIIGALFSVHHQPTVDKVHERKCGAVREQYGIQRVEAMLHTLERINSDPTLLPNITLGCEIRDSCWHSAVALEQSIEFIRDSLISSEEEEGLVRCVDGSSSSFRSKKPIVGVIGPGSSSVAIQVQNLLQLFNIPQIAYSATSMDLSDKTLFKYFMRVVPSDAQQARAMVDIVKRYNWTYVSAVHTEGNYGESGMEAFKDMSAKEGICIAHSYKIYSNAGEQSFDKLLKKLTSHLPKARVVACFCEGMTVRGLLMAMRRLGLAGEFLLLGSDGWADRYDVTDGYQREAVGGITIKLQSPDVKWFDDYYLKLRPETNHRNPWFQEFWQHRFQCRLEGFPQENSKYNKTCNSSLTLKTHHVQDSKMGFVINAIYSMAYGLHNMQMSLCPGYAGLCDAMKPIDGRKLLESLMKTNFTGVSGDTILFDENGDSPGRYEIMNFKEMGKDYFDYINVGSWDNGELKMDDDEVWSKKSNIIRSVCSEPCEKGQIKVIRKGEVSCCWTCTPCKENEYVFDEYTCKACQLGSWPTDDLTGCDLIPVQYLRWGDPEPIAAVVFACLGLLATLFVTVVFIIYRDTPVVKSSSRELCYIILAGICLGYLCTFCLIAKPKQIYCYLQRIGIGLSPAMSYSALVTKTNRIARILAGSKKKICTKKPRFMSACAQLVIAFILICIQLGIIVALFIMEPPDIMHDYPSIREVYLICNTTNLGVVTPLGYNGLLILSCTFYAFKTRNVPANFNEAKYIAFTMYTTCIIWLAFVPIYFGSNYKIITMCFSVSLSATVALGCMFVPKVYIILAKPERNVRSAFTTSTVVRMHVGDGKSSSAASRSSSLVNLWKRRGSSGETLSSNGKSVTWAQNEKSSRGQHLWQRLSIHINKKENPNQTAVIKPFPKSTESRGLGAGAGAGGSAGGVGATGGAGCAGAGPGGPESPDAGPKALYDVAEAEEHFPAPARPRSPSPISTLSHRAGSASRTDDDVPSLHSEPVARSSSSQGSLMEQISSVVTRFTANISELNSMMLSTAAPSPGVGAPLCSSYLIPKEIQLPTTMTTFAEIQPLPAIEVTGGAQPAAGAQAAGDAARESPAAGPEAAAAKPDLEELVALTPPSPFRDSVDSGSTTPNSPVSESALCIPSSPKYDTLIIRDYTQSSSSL
Description: Human embryonic kidney (HEK) cells transfected with rat mGluR5 were plated in clear bottom assay plates for assay in a Functional Drug Screening System (FDSS). In the alternative assay, HEK cells transfected with human mGluR5 (H10H cell line) were plated for assay in the FDSS. […] The cells were loaded with a Ca^2+-sensitive fluorescent dye (e.g., Fluo-4), and the plates were washed and placed in the FDSS instrument. After establishment of a fluorescence baseline for twelve seconds, the compounds of the present invention were added to the cells, and the response in cells was measured. Alternatively, in various further aspects, after establishment of a fluorescence baseline for about three seconds, the compounds of the present invention were added to the cells, and the response in cells was measured. Five minutes later, an mGluR5 agonist (e.g., glutamate, 3,5-dihydroxyphenylglycine, or quisqualate) was added to the cells, and the response of the cells was measured.
The above described assay operated in two modes. In the first mode, a range of concentrations of the present compounds were added to cells, followed by a single fixed concentration of agonist. If a compound acted as a potentiator, an EC50 value for potentiation and a maximum extent of potentiation by the compound at this concentration of agonist was determined by non-linear curve fitting. In the second mode, several fixed concentrations of the present compounds were added to various wells on a plate, followed by a range of concentrations of agonist for each concentration of present compound; the EC50 values for the agonist at each concentration of compound were determined by non-linear curve fitting. A decrease in the EC50 value of the agonist with increasing concentrations of the present compounds (a leftward shift of the agonist concentration-response curve) is an indication of the degree of mGluR5 potentiation at a given concentration of the present compound. An increase in the EC50 value of the agonist with increasing concentrations of the present compounds (a rightward shift of the agonist concentration-response curve) is an indication of the degree of mGluR5 antagonism at a given concentration of the present compound. The second mode also indicates whether the present compounds also affect the maximum response to mGluR5 to agonists.
The mGluR5 activity was determined using the metabotropic glutamate receptor activity assays in human embryonic kidney cells as described herein, wherein the human embryonic kidney cells were transfected with human mGluR5. The compounds in Table 1 were synthesized with methods identical or analogous to those shown herein. The requisite starting materials were commercially available, described in the literature, or readily synthesized by one skilled in the art of organic synthesis.
Human mGluR5a cDNA in pCMV6-XL6 mammalian expression plasmid was purchased from OriGene Technologies, Inc. (catalogue number SC326357) and subcloned into pcDNA3.1(−). Human embryonic kidney (HEK)293A cells were then transfected with human mGluR5a pcDNA3.1(−) using LipofectAmine2000 (Invitrogen) and monoclones were selected and tested for functional response using a Ca^2+ mobilization assay. Monoclones were named for the species (“H” for human) plus the location on the plate (e.g. “10H”).
HEK cells transfected with the human mGluR5a receptor (H10H cell line) were plated at 15,000 cells/well in clear-bottomed poly-D-lysine-coated assay plates (BD Falcon) in glutamate-glutamine-free growth medium and incubated overnight at 37° C. and 5% CO2. The following day, the growth medium was removed and the cells were washed with assay buffer containing 1× Hank's balanced salt solution (Invitrogen, Carlsbad, Calif.), 20 mM HEPES, 2.5 mM probenecid, pH 7.4 and left with 20 μL of this reagent.

[1] = HEK293, maximum average response at a single concentration, read-out: Emax
[2] = maximum average response at a single concentration

Compound | Emax (human mGluR5a receptor; [1]) | pEC50 (human mGluR5a receptor; concentration in mol/L) | EC50 (human mGluR5a receptor; read-out: EC50) | melting point | Emax (human mGluR5a receptor; [2]) | EC50 (human mGluR5a receptor; concentration in mol/L, read-out: pEC50 (converted))
O=C(c1c(F)cccc1F)N1CCn2nc(COc3ccccc3)cc2C1 [Compound 6] | 74% | 6.53 | 292 nM | 95.8 °C | – | –
O=C(c1ccc(F)cc1F)N1CCn2nc(COc3cccc(F)c3)cc2C1 [Compound 11] | 82% | 6.56 | 273 nM | 79.7 °C | – | –
O=C(c1ccc(F)c(F)c1)N1CCn2nc(COc3ccccc3)cc2C1 [Compound 4] | 70% | 6.38 | 414 nM | 100.6 °C | – | –
O=C(c1cccc(F)c1)N1CCn2nc(COc3ccccc3)cc2C1 [Compound 3] | 66% | 6.77 | 169 nM | – | – | –
Cc1cccc(C(=O)N2CCn3nc(COc4cccc(F)c4)cc3C2)n1 [Compound 24] | 58% | 5.51 | 3030 nM | 88 °C | – | –
CC1(C)CN(C(=O)c2ccc(F)cc2)Cc2cc(COc3ccccc3)nn21 [Compound 18] | 66% | 6.59 | 256 nM | – | – | –
O=C(c1ncc(F)cc1F)N1CCn2nc(COc3cccc(F)c3)cc2C1 [Compound 21] | 77% | 5.89 | 1280 nM | > 300 °C | – | –
CC1CN(C(=O)c2ccc(F)cc2)Cc2cc(COc3ccccc3)nn21 (racemic) [Compound 16] | 77% | – | 172 nM | 126.5 °C | – | –
O=C(c1cncc(F)c1)N1CCn2nc(COc3cccc(F)c3)cc2C1 [Compound 23] | 58% | – | 1370 nM | > 300 °C | – | 1510 nM
O=C(c1ccc(F)cc1)N1CCn2nc(COc3cccc(F)c3)cc2C1 [Compound 12] | 69% | – | – | 126.9 °C | – | –
Cc1ncccc1C(=O)N1CCn2nc(COc3cccc(F)c3)cc2C1 [Compound 22] | 34% | 5.53 | 2910 nM | – | – | –
O=C(c1cccc(F)c1)N1CCn2nc(COc3cccc(F)c3)cc2C1 [Compound 10] | 69% | 6.57 | 269 nM | – | – | –
Cc1cccnc1C(=O)N1CCn2nc(COc3cccc(F)c3)cc2C1 [Compound 14] | 51% | <5.00 | > 10000 nM | 125.4 °C | – | –
O=C(c1ccc(F)cc1F)N1CCn2nc(COc3ccccc3)cc2C1 [Compound 8] | 78% | 6.68 | 208 nM | – | – | –
O=C(c1ccccc1F)N1CCn2nc(COc3ccccc3)cc2C1 [Compound 2] | 76% | 6.70 | 201 nM | – | – | –
CC1Cn2nc(COc3ccccc3)cc2CN1C(=O)c1ccc(F)cc1 (racemic) [Compound 17] | 81% | – | 673 nM | – | – | –
O=C(c1cccc(F)c1F)N1CCn2nc(COc3ccccc3)cc2C1 [Compound 7] | 58% | 6.39 | 406 nM | – | – | –
O=C(c1cc(F)cc(F)c1)N1CCn2nc(COc3ccccc3)cc2C1 [Compound 5] | 50% | 7.10 | 79.6 nM | – | – | –

Now from value to molecule:

Emax (human mGluR5a receptor; [1]) | pEC50 (human mGluR5a receptor; concentration in mol/L) | EC50 (human mGluR5a receptor; read-out: EC50) | melting point | Emax (human mGluR5a receptor; [2]) | EC50 (human mGluR5a receptor; concentration in mol/L, read-out: pEC50 (converted)) | Compound
– | 6.62 | 240 nM | 53.8 °C | 75% | – | CC1Cn2nc(COc3ccccc3)cc2CN1C(=O)c1ccc(F)cc1 (stereo not drawn) [Compound 45]
– | 6.79 | 162 nM | – | 74% | – | CC1CN(C(=O)c2ccc(F)cc2)Cc2cc(COc3ccccc3)nn21 (stereo not drawn) [Compound 41]
72% | 6.25 | 562 nM | 88.8 °C | – | – | CC1CN(C(=O)c2cccc(C#N)c2)Cc2cc(COc3ccccc3)nn21 (stereo not drawn) [Compound 43]
52% | 5.56 | 2750 nM | > 300 °C | – | – | CC1Cn2nc(COc3ccccc3)cc2CN1C(=O)c1cccc(C#N)c1 (stereo not drawn) [Compound 49]
60% | 6.34 | 457 nM | – | – | – | N#Cc1cccc(C(=O)N2CCn3nc(COc4ccccc4)cc3C2)c1 [Compound 25]
54% | 6.77 | 170 nM | 76.8 °C | – | – | N#Cc1cc(F)cc(C(=O)N2CCn3nc(COc4cccc(F)c4)cc3C2)c1 [Compound 31]
12% | <4.52 | > 30200 nM | – | – | – | Cc1ncc(C(=O)N2CCn3nc(COc4cccc(F)c4)cc3C2)cn1 [Compound 37]
44% | 5.52 | 3020 nM | 158.5 °C | – | – | Cc1c(COc2ccccc2)nn2c1CN(C(=O)c1ccc(F)cc1)CC2 [Compound 57]
39% | <5.00 | > 10000 nM | 282.6 °C | – | – | O=C(c1ccnnc1)N1CCn2nc(COc3cccc(F)c3)cc2C1 [Compound 36]
56% | 6.12 | 759 nM | – | – | – | CC1Cn2nc(COc3ccccc3)cc2CN1C(=O)c1cc(F)cc(C#N)c1 (stereo not drawn) [Compound 51]
25% | – | > 30200 nM | – | – | – | CC(Oc1ccccc1)c1cc2n(n1)CCN(C(=O)c1ccc(F)cc1)C2 (racemic) [Compound 54]
15% | 5.74 | 1820 nM | – | – | – | COc1c(COc2ccccc2)nn2c1CN(C(=O)c1ccc(F)cc1)CC2 [Compound 59]
– | 6.36 | 437 nM | 53.9 °C | 59% | – | CC1Cn2nc(COc3ccccc3)cc2CN1C(=O)c1cccc(C#N)c1 (stereo not drawn) [Compound 50]
58% | 6.15 | 708 nM | – | – | – | CC1CN(C(=O)c2ccc(F)cc2)Cc2cc(COc3ccccc3)nn21 (stereo not drawn) [Compound 40]
55% | 6.68 | 209 nM | > 300 °C | – | – | O=C(c1cccc(F)c1)N1CCn2nc(COc3ccc(F)cc3)cc2C1 [Compound 39]
66% | 6.16 | 692 nM | – | – | – | CC1CN(C(=O)c2cc(F)cc(C#N)c2)Cc2cc(COc3ccccc3)nn21 (stereo not drawn) [Compound 44]
– | 6.31 | 490 nM | – | 67% | – | CC1Cn2nc(COc3ccccc3)cc2CN1C(=O)c1cccc(F)c1 (stereo not drawn) [Compound 48]
58% | 6.53 | 295 nM | – | – | – | O=C(c1ccc(F)cc1)N1CCn2nc(COc3ccc(F)cc3)cc2C1 [Compound 38]
60% | 5.52 | 3020 nM | – | – | – | O=C(c1cnccn1)N1CCn2nc(COc3cccc(F)c3)cc2C1 [Compound 34]
51% | 5.34 | 4570 nM | – | – | – | Nc1c(COc2ccccc2)nn2c1CN(C(=O)c1ccc(F)cc1)CC2 [Compound 58]
69% | 6.86 | 138 nM | – | – | – | CC1CN(C(=O)c2cccc(F)c2)Cc2cc(COc3ccccc3)nn21 (stereo not drawn) [Compound 42]
62% | 6.26 | 550 nM | – | – | – | O=C(c1ccc(F)cc1)N1CCn2nc(COc3ccccc3)c(F)c2C1 [Compound 56]
– | <5.00 | > 10000 nM | – | 69% | – | CC1Cn2nc(COc3ccccc3)cc2CN1C(=O)c1cc(F)cc(C#N)c1 (stereo not drawn) [Compound 52]
52% | 5.97 | 1070 nM | – | – | – | CC1Cn2nc(COc3ccccc3)cc2CN1C(=O)c1cccc(F)c1 (stereo not drawn) [Compound 47]
